Assay results reported in patent US12678431B2, “Pharmaceutical composition for treatment of dementia and cerebrovascular disorders” (FUSO PHARMACEUTICAL INDUSTRIES, LTD., priority 2019, dated 2026).

Tests used:
Format in all cases: in vivo
[1] = tested on: vascular dementia disease model mouse (BCAS model); assay: Novel object recognition test in vascular dementia disease model mouse; conditions: 100 μmol/kg oral or intraperitoneal, three times/week, FIG. 4
Source text: (§1) Firstly, according to a general preparation method for vascular dementia disease model mouse (for example, Shibata M, Ohtani R, Ihara M, et al., Stroke 35: 2598-2603, 2004; or Ihara M, Taguchi A, Maki T, et al., Methods Mol Biol 1135: 95-102, 2014), the mouse was equipped with a 0.18 mm microcoil into a right common carotid artery of the mice and a 0.16 mm microcoil into a left common carotid artery thereof.
(§2) Next, a vascular dementia disease model mouse (hereinafter sometimes referred to as Bilateral common artery stenosis (BCAS) model) was prepared according to the below-mentioned schedule as shown in FIG. 1.
Ethoxyquin or methyldopa were administered by an oral administration or an intraperitoneal administration in a dose of 100 μmol/kg by a ratio of three times/week until the completion of the test (for example, for 1 to 4 weeks). […]
A novel object recognition test was conducted by utilizing rodent's character of seeking novelty. […] After a certain times were passed, one of the object was changed by a novel object, and the animals were placed in the same observation box again, and the time exploring an object was measured for 10 minutes (Test trial). The time exploring a novel object or the time exploring the learned object were defined as “N” or “F” respectively, and were calculated by the following equation: the Exploration time=N+F, and the Discrimination Index=(N−F)/(N+F). […]

[2] = tested on: myelin basic protein (MBP); assay: Test for suppression against reduction of a myelin basic protein (MBP), brain section immunostaining in vascular dementia disease model mouse; conditions: BCAS model mouse; 100 μmol/kg oral or intraperitoneal, three times/week; brain frozen section, 28 days after the surgery; FIG. 3
Source text: as §1, §2
Ethoxyquin or methyldopa were administered by an oral administration or an intraperitoneal administration in a dose of 100 μmol/kg by a ratio of three times/week until the completion of the test (for example, for 1 to 4 weeks). Here the test results in the case where a healthy mouse as control was used is shown.
The vascular dementia disease model mouse which was prepared in the Test Example 1 was euthanized on 28 days after the surgery. The frozen section of the brain of the mice (N (number of animal)=6 to 8 animals) were immobilized in cold acetone for 10 minutes, and washed with PBS for 5 minutes (× three times). […]

[3] = tested on: matrix metalloproteinase 9 (MMP-9); assay: Test for suppression of blood-brain barrier disruption (western blotting, MMP-9 antibody) in vascular dementia disease model mouse; conditions: BCAS model mouse; 100 μmol/kg oral or intraperitoneal, three times/week; hippocampus and striatal tissue, 7 days after the surgery; FIG. 2
Source text: as §1
Next, a vascular dementia disease model mouse (hereinafter sometimes referred to as Bilateral common artery stenosis (BCAS) model) was prepared according to the below-mentioned schedule as shown in FIG. 1. […]
The vascular dementia disease model mouse which was prepared in the Test Example 1 was euthanized on 7 days after the surgery. […] The homogenate was crushed with ultrasonic while cooling on ice, and after centrifuging, the supernatant was subjected to a protein quantification by a bicinchoninic acid (BCA) method. Thereafter, the prepared protein sample was evaluated on an effect on suppression of blood-brain barrier disruption according to a western blotting method using antibody against matrix metalloproteinase 9 (MMP-9) similarly to a generally known method. […]

[4] = tested on: vascular dementia disease model mouse (BCAS model); assay: Test for influence on cerebral blood flow (Laser-Doppler blood flow meter) in vascular dementia disease model mice; conditions: 50, 75 or 100 μmol/kg oral or intraperitoneal, three times/week, measured up to 14 days after surgery, FIG. 5
Source text: as §1, §2
In the vascular dementia disease model mice (N (number of animals)=6 to 8 animals) that were prepared in the Test Example 1, a cerebral blood flow of a boundary region (blegma) between middle cerebral artery and anterior cerebral artery was measured at immediately before ischemic surgery, immediately after ischemic surgery, after 1 day, after 4 days, after 7 days or after 14 days. A Laser-Doppler blood flow meter was fixed on a skull, and a cerebral blood flow was measured, and the cerebral blood flow was evaluated as a ratio thereof to cerebral blood flow immediately before ischemic surgery. […]

Row | Compound | novel object recognition (cognitive dysfunction, long-term spatial memory; Discrimination Index) [1] | effect on suppression of the reduction of myelin basic protein [2] | effect on suppressing a blood-brain barrier disruption (MMP-9 western blotting) [3] | influence on cerebral blood flow (ratio to flow immediately before ischemic surgery) [4]
1 | C[C@](N)(Cc1ccc(O)c(O)c1)C(=O)O [Compound 2, Methyldopa sesquihydrates] | showed an improved cognitive dysfunction in a long-term spatial memory | suggested an effect on a suppression of the reduction of myelin basic protein | suggested an effect on suppressing a blood-brain barrier disruption | do not affect any cerebral blood flow
2 | CCOc1ccc2c(c1)C(C)=CC(C)(C)N2 [Compound 1, 6-Ethoxy-2,2,4-trimethyl-1,2-dihydroquinoline] | showed an improved cognitive dysfunction in a long-term spatial memory | suggested an effect on a suppression of the reduction of myelin basic protein | suggested an effect on suppressing a blood-brain barrier disruption | do not affect any cerebral blood flow
